According to patent US20210198284A1, “GOLD COMPOSITIONS AND METHODS OF USE THEREOF” (THE UNIVERSITY OF MASSACHUSETTS, priority 2018, published 2021):
Read-outs that look alike come from different tables or passages of the source.

Tests used:
A. baumannii NCTC 13420 = test: Antibacterial assay, MIC/MBC by broth microdilution (CLSI); assay type: cell-based
Procedure, shortened: (§1)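 CLSI broth microdilution in cation-adjusted Mueller Hinton broth, log-phase inoculum diluted to 7.5×10^5 CFU/mL before 1:1 mixing with two-fold compound dilutions, triplicates, 18 h at 37 °C static. MIC: >90% inhibition by OD600; MBC: lowest concentration giving no colonies after 5 μL spotted on agar, 18 h, 37 °C.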

P. aeruginosa NCTC 13437 = test: as above; assay type: cell-based; conditions: for MBC (in brackets) / MIC: P. aeruginosa NCTC 13437; for MIC: repeated twice, a/b = both values
Procedure, shortened: as §1

E. cloacae NCTC 13405 = test: as above; assay type: cell-based; conditions: for MBC (in brackets) / MIC: E. cloacae NCTC 13405; for MIC: repeated twice, a/b = both values
Procedure, shortened: as §1

E. coli ATCC 25922 = test: as above; assay type: cell-based; conditions: for MIC: repeated twice, a/b = both values
Procedure, shortened: as §1

[1] = tested on: K. pneumoniae ATCC 700603; test: as above; assay type: cell-based
Procedure, shortened: as §1

S. aureus JE2 (USA300) = test: as above; assay type: cell-based; conditions: for MBC (in brackets) / MIC: S. aureus JE2 (USA300); for MIC: repeated twice, a/b = both values
Procedure, shortened: as §1

[2] = Log P determination (n-octanol/water, FAAS)
Procedure, shortened: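 Shake-flask partition between mutually saturated n-octanol and water; Au in each phase quantified by flame AAS against aqueous Au-standard and n-octanol calibration curves. Compound shaken ~4 h in water then 1 h with octanol, or 3-4 h in both phases then diluted and shaken 1 h; log P = log([oct]/[water]).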

E. faecalis ATCC 700221 = test: Antibacterial assay, MIC/MBC by broth microdilution (CLSI); assay type: cell-based; conditions: for MIC: repeated twice, a/b = both values
Procedure, shortened: as §1

[3] = A. baumannii NCTC 13420, repeated twice, a/b = both values
[4] = K. pneumoniae ATCC 700603, repeated twice, a/b = both values

Row | Substance | MBC (in brackets) (A. baumannii NCTC 13420; A. baumannii NCTC 13420) | MIC (A. baumannii NCTC 13420; [3]) | MBC (in brackets) (P. aeruginosa NCTC 13437) | MIC (P. aeruginosa NCTC 13437) | MBC (in brackets) (E. cloacae NCTC 13405) | MIC (E. cloacae NCTC 13405) | MBC (in brackets) (E. coli ATCC 25922) | MIC (E. coli ATCC 25922) | MBC (in brackets) ([1]; K. pneumoniae ATCC 700603) | MIC [1, 4] | MBC (in brackets) (S. aureus JE2 (USA300)) | MIC (S. aureus JE2 (USA300)) | MBC (in brackets) (E. faecalis ATCC 700221) | MIC (E. faecalis ATCC 700221) | Log P [2] | also measured
1 | (2,3,4,6-Tetra-O-acetyl-1-thio-β-D-glucopyranosato) (triethylphosphine) gold(I) [Compound 1, reference compound] | 47(47) μM/mL | 47(47) μM/mL | 377 (377) μM/mL | 377 (377) μM/mL | 189 (189) μM/mL | 189 (189) μM/mL | 24 (24) μM/mL | 24 (24) μM/mL | 377 (377) μM/mL | 377 (377) μM/mL | (0.09) μM/mL | 0.04 μM/mL | – | – | – | MIC/MBC (A. baumannii NCTC 13420; A. baumannii): 47 µM; MIC/MBC ([1]; K. pneumoniae): 377 µM; Log P ([2]; n-octanol/water, gold by FAAS): 0.56
2 | (2-Aminobenzenethiolato)(triethylphosphine) gold(I) [Compound 19] | 18 μM/mL | 18/36 | 291 (291) μM/mL | 291 (291) μM/mL | (36/73) | 18/73 | 36 (36) μM/mL | 36 (36) μM/mL | 146 (146) μM/mL | 146 (146) μM/mL | (0.6) μM/mL | 0.009 μM/mL | (0.1) μM/mL | 0.02 μM/mL | 0.61 | MIC values in words (S. aureus JE2 (USA300); S. aureus): nanomolar range
3 | (2-Mercaptoethanolato)(trimethylphosphine) gold (I) [Compound 27] | 23 μM/mL | 6/3 | 91 μM/mL | 23/91 | 3 (3) μM/mL | 3 (3) μM/mL | 11 μM/mL | 1/6 | 23 μM/mL | 11 μM/mL | 0.7 μM/mL | 0.3 μM/mL | 0.3 (0.3) μM/mL | 0.3 (0.3) μM/mL | −0.15 | MIC (A. baumannii NCTC 13420; A. baumannii): 5.7 µM; activity in words (P. aeruginosa NCTC 13437; P. aeruginosa): showed activity; MIC/MBC (E. cloacae NCTC 13405; E. cloacae): 2.9 µM; MIC/MBC, fold lower than / improvement over auranofin (E. cloacae NCTC 13405; E. cloacae): 65 fold; MIC ([1]; K. pneumoniae): 11 µg/mL; MIC or MIC/MBC, fold lower than auranofin ([1]; K. pneumoniae): 34 fold
4 | [2,3,4,6-Tetra-O-acetyl-α-D-glucopyranosyl (1→4)-2,3,6-tri-O-acetyl-1-thio-β-D-glucopyranosato](triethylphosphine) gold(I) [Compound 5] | 33 (33) μM/mL | 33 (33) μM/mL | 132 (132) μM/mL | 132 (132) μM/mL | 66 (66) μM/mL | 66 (66) μM/mL | 17 (17) μM/mL | 17 (17) μM/mL | – | >265 μM/mL | (0.06) μM/mL | 0.008 μM/mL | 6 (0.1) μM/mL | – | 0.45 | –
